Experimental data as given in patent US7875260B2, “Imaging agents for functional imaging of lymphatic structures” (Baylor College of Medicine, priority 2006, dated 2011).

Key:
[1] = biological target: T1, LYVE-1 present on the lymph endothelium (swine hindlimb lymph vessel) (Sus scrofa, UniProt I3LTD0); assay: Staining of lymph vessels with HA-NIR, compared with ICG; format: in vivo
T1 construct: LYVE-1 present on the lymph endothelium; from tissue; host or cells: live white Yorkshire swine, hindlimb lymph vessels (lymph endothelium)
T1 sequence (I3LTD0 25-326): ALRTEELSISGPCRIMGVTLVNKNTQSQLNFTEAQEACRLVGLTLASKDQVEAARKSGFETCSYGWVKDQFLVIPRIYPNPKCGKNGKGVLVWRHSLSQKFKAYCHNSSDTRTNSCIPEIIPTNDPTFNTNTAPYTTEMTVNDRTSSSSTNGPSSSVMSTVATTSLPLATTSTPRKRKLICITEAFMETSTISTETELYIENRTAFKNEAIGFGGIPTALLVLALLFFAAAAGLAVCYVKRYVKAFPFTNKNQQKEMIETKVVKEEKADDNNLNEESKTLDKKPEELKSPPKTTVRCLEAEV
Procedure: Four, two-month old, 60 lb white Yorkshire swine (K Bar Livestock, HC 69 Box 270 Sabinal, Tex.) were imaged using protocols which were approved by the Baylor College of Medicine Institutional Animal Care and Use Committee. The animals were anesthetized, intubated, and maintained with isoflurane. Animal body temperature was maintained at 100° F. using a warming blanket. At the end of the procedure, the animals were euthanized and lymph nodes resected with fluorescence guidance.
Continuous-wave optical imaging of the fluorescent NIR dyes was performed with a custom built intensified charged-coupled device (CCD). Reynolds J S, Troy T L, and Sevick-Muraca E M. Multipixel techniques for frequency-domain photon migration imaging. Biotechnol Prog 13: 669-680, 1997., incorporated herein by reference in its entirety for all purposes. Briefly, the device had three principal components: 1) a NIR-sensitive image intensifier (model FS9910C ITT Night Vision, Roanoke, Va.); 2) a 16-bit dynamic range, frame transfer CCD camera (Roper Scientific, Tucson, Ariz.); and 3) a 785-nm laser diode (Thorlabs) used to provide the excitation light for activating ICG and hyaluronan-NIR. The 785-nm laser diode beam was expanded by using a planoconvex lens and a holographic optical diffuser such that approximately 0.08 m^2 of the swine's body was illuminated. A 785-nm holographic notch band rejection filter (model HNPF-785.0-2.0, Kaiser Optical Systems, Ann Arbor, Mich.) and an 830-nm image quality bandpass filter (model 830.0-2.0, Andover, Salem, N.H.) were placed before the 28-mm Nikkor lens (Nikon) to selectively reject the excitation light and pass the emitted 830-nm wavelength. […]
Images were processed using MATLAB (The Mathworks, Natick, Mass.), ImageJ (National Institutes of Health, Bethesda, Md.), and V++ (Digital Optics, Auckland, New Zealand). […] To reveal the frequency of the pulsatile flow, which is a characteristic of pumping lymphatics, the mean fluorescence intensity from a fixed region of interest on a lymph channel was selected and plotted as a function of imaging time. […]

[2] = cited from earlier work

propulsion of packets ([1]; intradermal, 64 μM HA-NIR or 32 μM ICG, swine hindlimb vessel) | Compound | normalized fluorescent intensity at fixed ROI as a function of time (FIG. 10C) ([1]; image acquisition 6 min, leg lymph vessel) | fluorescent intensity as a function of vessel length and time (FIGS. 11C, 11D) ([1]; swine lymph vessels) | fraction broken down in the liver ([2]; liver) [%] | fraction degraded in lymph nodes ([2]; lymph nodes) [%]
observed | CC1(C)C(/C=C/C=C/C=C/C=C2\N(CCCCS(=O)(=O)O)c3ccc4ccccc4c3C2(C)C)=[N+](CCCCS(=O)(=O)[O-])c2ccc3ccccc3c21 [ICG, indocyanine green] | fluctuation and net reduction of intensity | varies with time and length along the vessel | – | –
– | hyaluronic acid [HA] | – | – | 10 | 90
